By inhibition is commonly meant the change of the read-out against control, counted positive when it falls.

In one data set the test system is Lung cancer cell H460. As to the kind of experiment: Inhibition of tumor cell proliferation in vitro (MTT), H460. Format: cell-based. The following applies: Homo sapiens, NCI-H460, 48 hrs, read-out: Growth inhibition in vitro IC50. The protocol:
(§1) The activity assay of the compounds of the invention was carried out through common methods in the art. Commercially available Sunitinib was used as positive control, and lung cancer cell H460, colon cancer cell COLO205 and HT29, breast cancer cell A435 were used as exemplary tumor cells. The tested compounds were prepared by the methods disclosed in the Examples above.
(§2) A certain amount (100 μL/well, 0.5−1×10^4 cells/mL) of lung cancer cell H460, colon cancer cell COLO205, and breast cancer cell A435, etc. in logarithmic growth phase were seeded in a 96-well plate, and incubated in an incubator for 24 hrs at 37° C. and 5% CO2. Afterwards, tested compounds and positive control (20 μL/wells) were added, followed by 80 µL of 10% serum medium, and then the tumor cells were incubated for further 48 hrs at 37° C. and 5% CO2. Afterwards, MTT (5 mg/mL) was added to the 96-well plates (20 μL/well), and the cells were incubated for another 4 h. After removing the supernatant, the cells were dissolved with DMSO (150 μL/well) and measured with a microplate reader at 490 nm.

Data set [1] relates to colon cancer cell COLO205. Briefly: Inhibition of tumor cell proliferation in vitro (MTT), COLO205. Type of data set: cell-based. Particulars: Homo sapiens, COLO 205, 48 hrs, read-out: Growth inhibition in vitro IC50. The method, then:
as §1, §2

The test system of a further data set is breast cancer cell A435. As to the kind of experiment: Inhibition of tumor cell proliferation in vitro (MTT), A435. Type of data set: cell-based. The following applies: 48 hrs, read-out: Growth inhibition in vitro IC50. The method, then:
as §1, §2

The subject of data set [2] is human colon cancer HT-29 cells transplanted in nude mice. As to the kind of experiment: Growth inhibition of human cancer HT-29 cells transplanted in nude mice. Format: in vivo. The following applies: for Body weight d0 / Body weight d21: nude mice with HT-29 tumor; for Body weight d0: d0, time of administration in separate cages; for Body weight d0 / TV d0: 30 mg/kg group; for Body weight d21 / T/C (%) / RTV / TV d21: 30 mg/kg intragastrically once a day for 21 days; for T/C (%): relative tumor proliferation rate TRTV/CRTV; for RTV: relative tumor volume TVt/TV0; for TV d0: tumor volume at d0, time of administration in separate cages; for TV d21: tumor volume at d21. The method, then: A piece of tumor tissue in vigorous growth phase was obtained and cut into the size of about 1.5 mm^3, and subcutaneously inoculated into the right axillary region of nude mice aseptically. Diameters of transplanted tumors in nude mice were measured with a vernier caliper. After tumors grew to 100˜300 mm^3, the animals were randomly divided into 6 groups: model control group, Sunitinib group (30 mg/kg), Compound 1 group (30 mg/kg), Compound 2 group (30 mg/kg), Compound 3 group (30 mg/kg), Compound 4 group (30 mg/kg). […] Meanwhile, the negative control group was administered equivalent amount of sterile saline. The dynamic observation of antitumor effects of compounds 1-4 and Sunitinib was performed by measuring tumor diameters. […] The general behavior of nude mice was observed and recorded daily. (1) Tumor volume (TV), calculated by the equation: […] wherein a, b represent length and width, respectively. […] RTV=TVt/TV0 wherein TV0 represents the tumor volume at the beginning of administration in separated cages (ie. d0), TVt represents the tumor volume of each measurement. […] T/C %=(TRTV/CRTV)×100% TRTV: RTV of positive control group and each test compound group. CRTV: RTV of model control group.

Another data set has as its system Fibroblast NIH/3T3. As to the kind of experiment: Inhibition of fibroblast NIH/3T3 proliferation (MTT). Format: cell-based. The following applies: Mus musculus, NIH3T3, 48 h, read-out: Inhibition of NIH/3T3 cell proliferation in vitro IC50. The source says:
The method commonly used at present for studying fibroblast proliferation associated diseases, i.e., for studying tissue and organ fibrosis, is measuring effects of test compounds on NIH/3T3 cell proliferation (Gao Z. M., Wan K., Effect of inhibition of NIH/3T3 cell proliferation by Cantharidin on prevention and treatment of organ and tissue fibrosis. Chinese Journal of Clinical Rehabilitation, 2004 (2). Tao Y. Y., Wang X. L., Effects of Salvianolic Acid-B on TGF-β1/ERK Signaling Transduction in NIH/3T3 Fibroblast. Journal of Capital Medical University, 2007 (2)).
Fibroblast NIH/3T3 in logarithmic growth phase was seeded in a 96-well plate, by a certain number of cells (100 μL/well, 0.5−1×10^4 cells/mL). After incubating for 24 h, the screened samples (20 μl/well) were added (directly added after cell suspension was seeded in the plate), incubated for further 48 h at 37° C. and 5% CO2. Afterwards, MTT (5 mg/mL) was added to the 96-well plate (20 μL/well). The cells were incubated for another 4 h, and then dissolved with DMSO (150 μL/well) and measured with a microplate reader at 490 nm. The inhibition rate and IC50 were calculated.

Data set [3] relates to Human cervical cancer cell Hela. As to the kind of experiment: Anti-tumor activity assay (MTT), Hela. Type of data set: cell-based. The following applies: 48 hrs, samples freshly prepared with DMSO, read-out: Inhibition rate; for inhibition at 0.1 µg/mL: final concentration 0.1 μg/mL; for inhibition at 1 µg/mL: final concentration 1 μg/mL; for inhibition at 10 µg/mL: final concentration 10 μg/mL. The protocol:
(§3) These tests were carried out using conventional operations in the art. Specifically, the following materials and methods were employed:
(§4) Human cervical cancer cell Hela, human liver cancer cell SMMC-7721, human lung cancer cell A549, poorly differentiated human gastric adenocarcinoma cell BGC-823, human breast cancer cell MDA-MB-231.
(§5) To a bottle containing exponential growth phase cells in good condition, 0.25% trypsin solution was added. […] The cell suspension was seeded in a 96-well plate with an amount of 100 μL/well, incubated in a CO2 incubator for 24 hrs. 20 μL/well of tested compounds were added, followed by […], of 10% serum medium, and incubated for 48 hrs. 20 μL/well of MTT (5 mg/mL) was added to the 96-well plate, and the cells were incubated for 4 hrs in the incubator. After removing the supernatant, 150 μL/well of DMSO was added, and the cells were shaked in a horizontal swing bed for 10 minutes. Optical density value (OD value) of each well was measured with an ELISA analyzer at 490 nm, and cell inhibition rate was calculated. The corresponding solvent was used as negative control, and paclitaxel was used as positive control.

Data set [4] concerns human liver cancer cell SMMC-7721. Briefly: Anti-tumor activity assay (MTT), SMMC-7721. Format: cell-based. The following applies: 48 hrs, samples stored at −20° C. for one week, read-out: Inhibition rate; for inhibition at 0.1 µg/mL: final concentration 0.1 μg/mL; for inhibition at 1 µg/mL: final concentration 1 μg/mL. The method, then:
as §3, §4, §5

The subject of data set [5] is poorly differentiated human gastric adenocarcinoma cell BGC-823. As to the kind of experiment: Anti-tumor activity assay (MTT), BGC-823. Type of data set: cell-based. The following applies: 48 hrs, samples stored at −20° C. for one week, read-out: Inhibition rate; for inhibition at 0.1 µg/mL: final concentration 0.1 μg/mL; for inhibition at 1 µg/mL: final concentration 1 μg/mL. The method, then:
as §3, §4, §5

Data set [6] deals with human lung cancer cell A549. Briefly: Anti-tumor activity assay (MTT), A549. Type of data set: cell-based. The following applies: 48 hrs, samples stored at −20° C. for one week, read-out: Inhibition rate; for inhibition at 0.1 µg/mL: final concentration 0.1 μg/mL; for inhibition at 1 µg/mL: final concentration 1 μg/mL. The protocol: as §3, §4, §5
Data set [7] deals with human breast cancer cell MDA-MB-231. As to the kind of experiment: Anti-tumor activity assay (MTT), MDA-MB-231. Type of data set: cell-based. Particulars: 48 hrs, samples stored at −20° C. for one week, read-out: Inhibition rate; for inhibition at 0.1 µg/mL: final concentration 0.1 μg/mL; for inhibition at 1 µg/mL: final concentration 1 μg/mL; for inhibition at 10 µg/mL: final concentration 10 μg/mL. The method, then: as §3, §4, §5

As for `Cc1[nH]c(/C=C2\C(=O)Nc3ccc(F)cc32)c(C)c1C(=O)NCC1CCNCC1` [Compound 4], the IC50 in the data set on Lung cancer cell H460 is 0.58 µM. Further, the IC50 in data set [1] was 0.4 µM. Moreover, the IC50 in the data set on breast cancer cell A435 worked out at 0.22 µM. For the same compound, in data set [2], the “Body weight d0” value was 20.0 ± 2.2 g, the “Body weight d21” value was 20.3 ± 1.5 g, the “T/C (%)” value came to 41.0% and the RTV stood at 3.6 ± 3.2. In data set [2], the “TV d0” value came out at 195.0 ± 67.4 mm^3 and the “TV d21” value is 791.7 ± 815.0 mm^3. In the data set on Fibroblast NIH/3T3, the IC50 was determined as 1.19 µM.
Consider `Cc1[nH]c(/C=C2\C(=O)Nc3ccc(F)cc32)c(C)c1C(=O)NC1CCN(Cc2ccccc2)C1` (stereo not shown) [Compound 6, N-(1-benzylpyrrolidin-3-yl)-5-(5-fluoro-2-oxo-1,2-dihydroindole-3-methylene)-2,4-dimethyl-1H-pyrrole-3-formamide], for which the IC50 with Lung cancer cell H460 came to 0.33 µM; in data set [1], 0.22 µM; in the data set with breast cancer cell A435, 0.087 µM; with Fibroblast NIH/3T3, 0.698 µM.
The like results for `Cc1[nH]c(/C=C2\C(=O)Nc3ccc(F)cc32)c(C)c1C(=O)Nc1ccc(N(C)C)cc1` [Compound 7, N-[4-(dimethylamino)phenyl]-5-(5-fluoro-2-oxo-1,2-dihydroindole-3-methylene)-2,4-dimethyl-1H-pyrrole-3-formamide] were, in that order, 0.23 µM, 0.17 µM, 0.082 µM and 0.505 µM.
For `Cc1[nH]c(/C=C2\C(=O)Nc3ccc(F)cc32)c(C)c1C(=O)NCC(=O)Nc1ccc(N(C)C)cc1` [Compound 8, N-{2-[4-(dimethylamino)anilino]-2-oxoethyl}-5-(5-fluoro-2-oxo-1,2-dihydroindole-3-methylene)-2,4-dimethyl-1H-pyrrole-3-formamide], the IC50 with Lung cancer cell H460 is 0.17 µM; in data set [1], 0.16 µM; in the data set with breast cancer cell A435, 0.091 µM; with Fibroblast NIH/3T3, 0.884 µM.
For the compound `CCN1CCCC1CNC(=O)CNC(=O)c1c(C)[nH]c(/C=C2\C(=O)Nc3ccc(F)cc32)c1C` (stereo not shown) [Compound 11, N-{2-[(1-ethylpyrrolidin-2-yl)methylamino]-2-oxoethyl}-5-(5-fluoro-2-oxo-1,2-dihydroindole-3-methylene)-2,4-dimethyl-1H-pyrrole-3-formamide], the IC50 in the data set with Lung cancer cell H460 is 0.41 µM; in data set [1], 0.28 µM; with breast cancer cell A435 it was 0.15 µM.
The like results for `CCN1CCCC1CNC(=O)C(C)NC(=O)c1c(C)[nH]c(/C=C2\C(=O)Nc3ccc(F)cc32)c1C` (stereo not shown) [Compound 12, N-{2-[(1-ethylpyrrolidin-2-yl)methylamino]-1-oxoprop-2-yl}-5-(5-fluoro-2-oxo-1,2-dihydroindole-3-methylene)-2,4-dimethyl-1H-pyrrole-3-formamide] were, in that order, 0.44 µM, 0.31 µM and 0.16 µM.
For the compound `CC(=O)O[C@H]1C(=O)[C@@]2(C)[C@H]([C@H](OC(=O)c3ccccc3)[C@]3(O)C[C@H](OC(=O)[C@H](O)[C@@H](NC(=O)c4ccccc4)c4ccccc4)C(C)=C1C3(C)C)[C@]1(OC(C)=O)CO[C@@H]1C[C@@H]2O` [Paclitaxel, reference compound], the inhibition at 0.1 µg/mL in [3] is 79.7%; in data set [4], -6.71%; in data set [5] it was 85.1%; in data set [6] it was 20.1%; in data set [7], 5.9%. The inhibition at 1 µg/mL was 78.1% in data set [3]; -6.59% in data set [4]; 86.6% in data set [5]; 23.8% in data set [6]; 4.9% in data set [7]. In addition, the inhibition at 10 µg/mL amounted to 72.7% in [3] and 29.5% in data set [7].
Regarding `CCN(CC)CCNC(=O)c1c(C)[nH]c(/C=C2\C(=O)Nc3ccc(F)cc32)c1C` [Sunitinib, reference compound], the inhibition at 0.1 µg/mL in data set [3] was -0.21%; in data set [4], -38.8%; in data set [5], 9.53%; in [6], 7.29%; in data set [7], 6.4%. Besides, the inhibition at 1 µg/mL in data set [3] was 24.7%; in data set [4], -12.3%; in [5], 19.2%; in data set [6], 29.1%; in data set [7], 28.9%. Further, the inhibition at 10 µg/mL was determined as 99.2% in [3]; 72.5% in data set [4] (final concentration 10 μg/mL); 88.8% in data set [5] (final concentration 10 μg/mL); 98.7% in data set [6] (final concentration 10 μg/mL); 90.2% in data set [7]. Besides, the IC50 was found to be 0.68 µM in the data set on Lung cancer cell H460, 0.55 µM in [1] and 0.63 µM with breast cancer cell A435. In addition, the “Body weight d0” value in [2] came to 20.4 ± 2.0 g. For the same compound, the “Body weight d21” value in [2] was determined as 21.0 ± 1.9 g. Further, the “T/C (%)” value in [2] was 51.5%. The same compound displayed an RTV in data set [2] of 4.6 ± 1.5. Also, the “TV d0” value in data set [2] stood at 198.2 ± 62.4 mm^3. In [2], the “TV d21” value stood at 911.8 ± 481.7 mm^3.

(Values after patent US8829039B2, “Dihydroindolinone derivatives” (Shanghai Institute of Pharmaceutical Industry, priority 2008, dated 2014).)
